Experimental data reported in patent US20040242459A1 (priority 2001, published 2004).
Marks after values point to notes of the source that are not given here.

Assays:
[1] = test system: adjuvant-induced arthritis in female Lewis rats
Experimental: Nine groups of 10 rats each were injected with an emulsion containing 0.5 mg of Mycobacterium butyricum in 0.1 ml of light mineral oil, and a negative control group of 10 rats was not injected with adjuvant. Body weights, primary (injected) and contralateral (non-injected) paw volumes (determined by mercury displacement plethysmography) and lateral radiographs (obtained under Ketamine and Xylazine anesthesia) were determined before (day-1) and at various time points including 21 days following adjuvant injection. The rats were anesthetized with an intramuscular injection of 0.03-0.1 ml of a combination of Ketamine (87 mg/kg) and Xylazine (13 mg/kg) for radiographs and injection of adjuvant. Lateral to medial radiographs were made of both hind paws on days 0 and 21 for using the Faxitron (45 kVp, 30 seconds or 45 kVp, 1 second) and Kodak X-OMAT TL film, and were developed in an automatic processor. […] Specific criteria were used to establish the numerical grade of severity for each radiographic change. The maximum possible score per foot was 26. Compounds or vehicle were administered prophylactically beginning post injection of adjuvant and continuing for 21 days. The Compounds were prepared weekly, refrigerated in the dark until used, and vortex mixed immediately prior to administration. […] The liver, thymus and spleens of all rats were removed and weighed and both hind paws were removed and radiographed.
Two-factor (‘treatment’ and ‘time’) analysis of variance with repeated measures on ‘time’ were applied to the percent changes for body weight and foot volumes and to the rank-transformed radiographic total scores. A post hoc Dunnett's test was conducted to compare the effect of treatments to vehicle. A one-way analysis of variance was applied to the thymic and spleen weights followed by the Dunnett's test to compare the effect of treatments to vehicle.
Compounds or vehicle (0.5% Methocel in sterile water) were administered by oral gavage once daily for 21 days following induction of arthritis in female Lewis rats via the sub plantar injection of 0.1 ml of light mineral oil containing 0.5 mg of Mycobacterium butyricum. Control animals were not injected with adjuvant. Body weights were measured 1 day prior to (i.e. day 0) and at 14 and 21 days post induction of arthritis. The data in Table 1 represent the mean increase or decrease in body weight ±1 standard deviation for groups of 9 to 10 animals.
Compounds or vehicle (0.5% Methocel in sterile water) were administered by oral gavage once daily for 21 days following induction of arthritis in female Lewis rats via the sub plantar injection of 0.1 ml of light mineral oil containing 0.5 mg of Mycobacterium butyricum. Control animals were not injected with adjuvant.
(§1) Injected foot volumes were measured by mercury displacement plethysmography prior to induction of arthritis, and on days 4, 14 and 21 post induction of arthritis. The data represent the mean increase in foot volume ±1 standard deviation for groups of 9 to 10 animals. The extent of paw swelling in compound-treated animals was compared to the mean of that in the vehicle-treated group, and percentage inhibition was calculated for each dose level of compound.
as §1, with “Contralateral foot” for “Injected foot”, “prior to,” for “prior to induction of arthritis,”, “and at” for “and on”, “days” for “days 4,”
[…] Data represent the mean weights of organs in mg ±1 standard deviation for groups of 9 to 10 animals.
Total radiographic scores were derived from examination of lateral radiographs obtained prior to, and on day 21 post induction of arthritis.

[2] = biological target: T1, recombinant human PPARδ (GST-PPARδ) (Homo sapiens, UniProt Q03181); test: Scintillation Proximity Assay, displacement of [3H2]Compound B from PPARδ; type: binding; details: human PPARδ binding; read-out: IC50 (μM: SPA or BND) Delta
T1 construct: The full length human cDNAs for PPARδ and PPARα were subcloned into the pGEX-KT expression vector; made in house; host or cells: E. coli
T1 sequence (Q03181 1-441): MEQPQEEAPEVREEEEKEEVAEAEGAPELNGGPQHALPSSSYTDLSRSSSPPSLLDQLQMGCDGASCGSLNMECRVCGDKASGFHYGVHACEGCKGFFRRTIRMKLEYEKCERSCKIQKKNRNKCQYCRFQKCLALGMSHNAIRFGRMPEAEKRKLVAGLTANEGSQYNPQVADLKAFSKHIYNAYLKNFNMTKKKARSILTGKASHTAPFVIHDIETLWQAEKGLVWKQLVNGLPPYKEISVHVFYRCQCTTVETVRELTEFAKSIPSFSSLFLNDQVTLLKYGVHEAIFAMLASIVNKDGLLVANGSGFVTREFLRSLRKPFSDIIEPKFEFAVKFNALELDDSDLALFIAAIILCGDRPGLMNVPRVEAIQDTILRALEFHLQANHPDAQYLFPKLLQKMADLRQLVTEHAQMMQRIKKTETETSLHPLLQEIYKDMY
Excerpt: As an approach to identifying human PPAR agonists, a Scintillation Proximity Assay was used to characterize PPAR-γ, PPAR-δ, and PPAR-α ligands.
Human PPARγ2, human PPARδ and human PPARα were expressed as GST-fusion proteins in E. coli. The full length human cDNA for PPARγ 2 was subcloned into the pGEX-2 T expression vector (Amersham Pharmacia Biotech, Inc.). The full length human cDNAs for PPARδ and PPARα were subcloned into the pGEX-KT expression vector (Amersham Pharmacia Biotech, Inc.). E. coli containing the respective plasmids were propagated, induced, and harvested by centrifugation. The resuspended pellet was broken in a French press and debris removed by centrifugation. Recombinant human PPAR receptors were purified by affinity chromatography on glutathione sepharose. After application to the column, and one wash, receptor was eluted with glutathione. Glycerol (10%) was added to stabilize the receptor and aliquots were stored at −80° C.
After incubation for ˜16 h at 15° C. with shaking, the assay plates were counted in a Packard Topcount with quench correction.

[3] = injected paw, same doses p.o. q.d.
[4] = weight at necropsy, day of euthanasia 21 (Compound 1, indomethacin) or 15 (Compounds 2-6), mean ± SD

In the case of CCCc1cc(Oc2ccccc2)ccc1OCCc1cc2cc(CC(=O)O)ccc2[nH]1 [Compound 2, {2-[2-(4-phenoxy-2-propylphenoxy)ethyl]-1H-indol-5-yl}acetic acid], the “Change in Secondary Foot Volume Day 14-0” value ([1]; contralateral paw, p.o. q.d., Compounds 1, 2, 4, 6 30 mg/kg/day, Compound 3 50, Compound 5 100, indomethacin 2, mean ± SD) is reported as 786 ± 220 µL, the “Secondary Foot Volume % Inhibition Compared to Vehicle Day 14-0” value ([1]; contralateral paw, same doses p.o. q.d.) is reported as 0% and the “Change in Primary Foot Volume Day 4-0” value ([1]; injected paw, p.o. q.d., Compounds 1, 2, 4, 6 30 mg/kg/day, Compound 3 50, Compound 5 100, indomethacin 2, mean ± SD) is reported as 1642 ± 386 µL. For the same compound, the “Primary Foot Volume % Inhibition Compared to Vehicle Day 4-0” value [1, 3] was 18.6%, the “Primary Foot Volume % Inhibition Compared to Vehicle Day 14-0” value [1, 3] was 21.3% and the “Change in Primary Foot Volume Day 14-0” value ([1]; injected paw, same doses p.o. q.d., mean ± SD) was 1875 ± 418 µL. For the same compound, the “change in body weight Day 14-0” value ([1]; p.o. q.d., Compounds 1, 2, 4, 6 30 mg/kg/day, Compound 3 50, Compound 5 100, indomethacin 2 mg/kg/day, mean ± SD) was 0.8 ± 7.3**^++ grams, the “prevention of swelling of primary or secondary paws” value ([1]; up to day 14, rats then euthanized) was “failed to prevent swelling of either the primary or secondary paws” and the “Spleen” value [1, 4] was 590.8 ± 82.1 mg. The “Thymus” value [1, 4] was 168.7 ± 44.6 mg and the IC50 [2] was 15 µM.
